Source: patent US12011475B2, “Polypeptide, polypeptide fragment, derivative thereof, and applications thereof” (CHENGDU HUITAI BIOMEDICINE CO., LTD., priority 2017, dated 2024)
Ends that are not written are not given here.

Key:
Assay type in all cases: in vivo
[1] = system: rat with pulmonary fibrosis induced by bleomycin; experiment: Lung coefficient, intravenous injection (Example 22); settings: lung mass (mg)/body weight (g); intravenous injection 10 mg/kg once a day, 4th to 13th day after bleomycin 4 mg/kg; Mean ± SEM
Procedure: (§1) The rats in Example 2 were weighed and sacrificed by anesthesia overdose. Lung tissue of both sides of the rats was taken, and the connective tissue around the lung tissue was carefully removed. After washing with saline and dried with a filter paper, the wet weight of the whole lung was weighted by an electronic balance. After the wet weight of the whole lung was weighted by the electronic balance, the lung coefficient was calculated according to the formula, lung coefficient=lung mass (mg)/body weight (g) (the result is shown in FIG. 1).
(§2) The rats were weighed before administration, intramuscularly injected with 65 mg/kg Zoletil anesthetic solution. After the rats entered the stage III anesthesia, the experimental rats were fixated in the lateral decubitus. Gavage needle size 12 was inserted into rat trachea through oral cavity along the glottis to instill sterile saline or bleomycin (4 mg/kg) (Day 0). After the anesthesia, the rats in control group were intratracheally instilled with an equal volume of sterile saline, and the rats in model group and treatment groups were intratracheally instilled with bleomycin (4 mg/kg). […]
The experimental rats of the control group, the model group and the treatment groups of Example 20 were taken, the lung weight was measured and the lung coefficient was calculated. […]

[2] = system: rat with pulmonary fibrosis induced by bleomycin; experiment: HE staining score, intravenous injection (Example 23); settings: inflammatory pathology score, grade 0 to 3; intravenous injection 10 mg/kg once a day, 4th to 13th day after bleomycin 4 mg/kg; Mean ± SEM
Excerpt: (§3) The lung tissue of the rats of Example 2 was taken, fixed with 4% paraformaldehyde and embedded in paraffin. The wax block embedded the lung tissue was sectioned along the largest cross section. Pathological changes in lung tissue were observed using hematoxylin-eosin (HE) staining. Pathological changes in lung tissue were observed under a light microscope (low magnification) at a magnification of 100 times (the result is shown in FIG. 2).
(§4) According to the method provided by Szapie, et al., the degree of alveolitis was graded according to the range of lesions and could be divided into 0 to 3 grades, corresponding to 0 to 3 points. The evaluation indexes for the degree of alveolitis are as follows: grade 0, no alveolitis; grade 1, mild alveolitis, manifested as a slight increase in alveolar septum, infiltration of monocytes, near the pleura or localized, with a lesion range of less than 20% without alveolar structural damage; grade 2, moderate alveolitis, the lesion ranges from 20% to 50%, relatively severe near the pleura; grade 3, severe alveolitis, diffusely distributed, the lesion range is more than 50%, with pulmonary parenchymal lesion occasionally.
The rats were weighed before administration, intramuscularly injected with 65 mg/kg Zoletil anesthetic solution. After the rats entered the stage III anesthesia, the experimental rats were fixated in the lateral decubitus. […]

[3] = system: rat with pulmonary fibrosis induced by bleomycin; experiment: Masson staining score, intravenous injection (Example 24); settings: fibrosis pathology score, grade 0 to 8; intravenous injection 10 mg/kg once a day, 4th to 13th day after bleomycin 4 mg/kg; Mean ± SEM
Excerpt: as §3, with “9” for “2”, “staining by Masson's trichrome stain (Masson).” for “hematoxylin-eosin (HE) staining.”, “15).” for “2).”
According to the Modified Ashcroft scale scoring method, the degree of pulmonary fibrosis was evaluated according to the range of lesions and could be divided into 0 to 8 grades.
as §2, with “mg/kg). On the 4th day, the sterile saline or peptide drug was injected through the tail vein once a day until the 13th day.” for “mg/kg).”

active TGF-β = experiment: Active TGF-β content in rat lung tissue by ELISA (Example 27); settings: active TGF-β/total TGF-β; intravenous injection 10 mg/kg once a day, 4th to 13th day after bleomycin 4 mg/kg; Mean ± SEM
Procedure: The rat lung tissue in the model group, the control group and the N4 treatment group of Example 9 was taken, and homogenized using RIPA lysate (100 mg of lung tissue corresponding to 1 mL of lysate), centrifuged and the supernatant was taken, and then the protein concentration was determined by BCA method. Equal amounts of protein samples were taken and the active TGF-β content was measured by enzyme-linked immunosorbent assay ELISA (Promega, Cat. No. G7591) (the result is shown in FIG. 10), and one-way ANOVA was used for biostatistical analysis.
as §2
The rat lung tissue in the model group, the control group and the treatment groups of Example 20 was taken, and the active TGF-β content was measured by ELISA. […]

[4] = system: rat with pulmonary fibrosis induced by bleomycin; experiment: HE staining score, intratracheal instillation (Example 18); settings: inflammatory pathology score, grade 0 to 3, 8 mg/kg peptide + 4 mg/kg bleomycin, Mean ± SEM
Excerpt: as §3
as §4, with “occasionally. […]” for “occasionally.”

tgf-β = experiment: mRNA content of tgf-β in rat lung tissue by qPCR (Example 26); settings: 18S RNA internal reference; intravenous injection 10 mg/kg once a day, 4th to 13th day after bleomycin 4 mg/kg; Mean ± SEM
Procedure: as §2, with “mg/kg). On the 4th day, the sterile saline or peptide drug was injected through the tail vein once a day until the 13th day. The rats were sacrificed on the 14th day for subsequent experiments.” for “mg/kg).”
The rat lung tissue in the control group, the model group and the treatment groups of Example 20 was taken. […] After obtaining cDNA using reverse transcription, fluorescence quantitative PCR (qPCR) kit (Applied Biosystems, Cat. No. 4319413E) was used to detect the mRNA content of tgf-β (forward primer: GAGGTGACCTGGGCACCAT, reverse primer: GGCCATGAGGAGCAGGAA), 18S RNA was used as an internal reference, and the result is shown in the tgf-β values in Table 4.

[5] = system: rat with pulmonary fibrosis induced by bleomycin; experiment: Lung coefficient, intratracheal instillation (Example 17); settings: lung mass (mg)/body weight (g), 8 mg/kg peptide + 4 mg/kg bleomycin, Mean ± SEM
Procedure: as §1
The rats in model group were intratracheally instilled with bleomycin (4 mg/kg); after anesthesia, the rats in treatment groups were intratracheally instilled with bleomycin (4 mg/kg) and corresponding therapeutic drug (8 mg/kg) simultaneously. The remaining implementation steps were the same as the description of Example 9.
The experimental rats of the control group, the model group and the treatment groups of Example 15 were taken to determine the lung coefficient. The implementation steps were the same as the description of Example 2.

YRVRFLAKENVTQDAEDN [N1]
Lung Coefficient [1]: 9.25 ± 0.28
HE Score [2]: 2.44 ± 0.24
Masson Score [3]: 3.85 ± 0.11
TGF-β (active TGF-β content in lung tissue) (active TGF-β): 13.15 ± 0.48
HE Score [4]: 2.45 ± 0.09
tgf-β (mRNA content of tgf-β in lung tissue) (tgf-β): 2.50 ± 0.04
Lung Coefficient [5]: 8.49 ± 0.09
